Source: ChEMBL document CHEMBL1201862, “PubChem BioAssay data set” (2004)
Several values for one entry are separate records, joined by “and”; a condition that tells them apart may be missing. Identical values can stand only once. Activity calls are given as the source filed them.

Assays:
[1] = inhibitors of intracellular T. cruzi replication, confirmation, NIH3T3 host cells, beta-gal luminescence (AID 2044); type: functional, cell-based;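 also: intracellular parasites grown in NIH/3T3 mouse fibroblasts as host cells; luminescent beta-galactosidase reporter signal from transgenic T. cruzi replicating inside host cells; inhibitors lower the luminescence signal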
[2] = cytotoxicity toward NIH3T3 fibroblasts, dose response, counter-screen, cell-based, ATP luminescence, mouse fibroblasts (AID 2010); type: functional;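 also: cells exposed to compound for about 90 hours before reading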
[3] = target: Cytochrome P450 2C9 (Homo sapiens, UniProt P11712)
Chain of Cytochrome P450 2C9 (P11712 whole entry): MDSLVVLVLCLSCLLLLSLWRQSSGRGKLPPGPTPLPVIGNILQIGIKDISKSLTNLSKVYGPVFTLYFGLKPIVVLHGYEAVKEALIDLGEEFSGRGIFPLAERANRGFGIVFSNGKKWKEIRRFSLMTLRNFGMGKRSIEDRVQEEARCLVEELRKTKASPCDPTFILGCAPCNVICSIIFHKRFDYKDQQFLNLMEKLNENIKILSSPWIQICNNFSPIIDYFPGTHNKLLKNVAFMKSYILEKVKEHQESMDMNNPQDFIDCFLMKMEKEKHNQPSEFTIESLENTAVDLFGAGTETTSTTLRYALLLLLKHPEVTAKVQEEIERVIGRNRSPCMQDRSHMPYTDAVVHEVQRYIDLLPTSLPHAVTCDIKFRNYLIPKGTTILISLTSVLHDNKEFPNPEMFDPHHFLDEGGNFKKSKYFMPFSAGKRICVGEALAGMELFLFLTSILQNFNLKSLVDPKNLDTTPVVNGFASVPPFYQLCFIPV

[4] = target: Cytochrome P450 3A4 (Homo sapiens, UniProt P08684);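 also: CYP3A4 tested as one member of a cytochrome P450 panel screen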
Chain of Cytochrome P450 3A4 (P08684 whole entry): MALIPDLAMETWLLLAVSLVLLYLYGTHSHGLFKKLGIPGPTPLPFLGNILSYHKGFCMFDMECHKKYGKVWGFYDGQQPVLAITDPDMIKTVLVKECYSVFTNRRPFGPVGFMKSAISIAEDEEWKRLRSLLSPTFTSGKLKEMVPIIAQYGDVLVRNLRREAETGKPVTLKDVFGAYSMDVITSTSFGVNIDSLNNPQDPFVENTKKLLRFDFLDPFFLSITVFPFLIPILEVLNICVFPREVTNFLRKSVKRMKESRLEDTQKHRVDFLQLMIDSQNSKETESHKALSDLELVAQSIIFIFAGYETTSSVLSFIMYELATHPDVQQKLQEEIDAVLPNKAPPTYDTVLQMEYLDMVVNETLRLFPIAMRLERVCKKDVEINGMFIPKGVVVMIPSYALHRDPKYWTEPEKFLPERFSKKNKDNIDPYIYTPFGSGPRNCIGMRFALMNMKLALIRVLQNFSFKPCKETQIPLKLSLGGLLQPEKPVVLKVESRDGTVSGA

[5] = target: Cytochrome P450 2C19 (Homo sapiens, UniProt P33261); test: Cytochrome panel assay with activity outcomes. Panel member name: p450-cyp2c19 Compounds with AC50 equal or less than 10 uM are considered active; type: functional
Chain of Cytochrome P450 2C19 (P33261 whole entry): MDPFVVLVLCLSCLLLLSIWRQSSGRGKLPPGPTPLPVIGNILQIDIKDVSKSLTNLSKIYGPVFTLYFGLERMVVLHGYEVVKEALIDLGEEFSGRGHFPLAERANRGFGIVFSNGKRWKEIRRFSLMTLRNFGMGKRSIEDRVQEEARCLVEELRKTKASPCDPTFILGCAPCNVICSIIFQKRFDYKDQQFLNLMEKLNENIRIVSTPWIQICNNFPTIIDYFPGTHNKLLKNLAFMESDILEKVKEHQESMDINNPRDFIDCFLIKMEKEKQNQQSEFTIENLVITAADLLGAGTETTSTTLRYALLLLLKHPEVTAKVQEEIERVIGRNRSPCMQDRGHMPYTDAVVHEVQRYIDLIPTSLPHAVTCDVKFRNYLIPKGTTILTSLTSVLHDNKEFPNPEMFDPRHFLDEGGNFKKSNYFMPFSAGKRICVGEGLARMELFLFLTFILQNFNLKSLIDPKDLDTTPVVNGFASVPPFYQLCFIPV

[6] = target: Cytochrome P450 2D6 (Homo sapiens, UniProt P10635);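 also: CYP2D6 member of a cytochrome P450 panel assay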
Chain of Cytochrome P450 2D6 (P10635 whole entry): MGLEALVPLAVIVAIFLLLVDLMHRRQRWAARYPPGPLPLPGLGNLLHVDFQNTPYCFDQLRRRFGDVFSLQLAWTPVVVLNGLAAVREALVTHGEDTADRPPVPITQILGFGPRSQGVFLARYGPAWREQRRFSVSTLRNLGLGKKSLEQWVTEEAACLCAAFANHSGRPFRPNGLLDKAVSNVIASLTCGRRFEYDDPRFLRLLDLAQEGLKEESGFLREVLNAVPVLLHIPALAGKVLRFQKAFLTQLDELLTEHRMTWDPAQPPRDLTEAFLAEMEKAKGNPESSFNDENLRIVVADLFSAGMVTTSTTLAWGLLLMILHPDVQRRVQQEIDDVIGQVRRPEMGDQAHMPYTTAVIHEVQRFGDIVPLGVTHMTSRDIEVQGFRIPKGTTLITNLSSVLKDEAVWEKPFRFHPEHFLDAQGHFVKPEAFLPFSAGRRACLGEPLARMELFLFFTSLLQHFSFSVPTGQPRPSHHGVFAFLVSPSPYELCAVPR

[7] = test system: INS1; test: beta cell apoptosis inhibitors, cytokine rescue, dose response, luminescence, retest (AID 449756); type: functional, cell-based; conditions: Rattus norvegicus;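 also: cell death triggered by IL-1 beta plus TNF-alpha plus IFN-gamma mixture; protective hits raise ATP signal compared with cytokine alone wells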
[8] = Luminescence Cell-Based Dose Retest to Confirm Inhibitors of Cancer Stem Cells. [Related pubchem assays (depositor defined):AID2717, AID2721]; type: functional; conditions: Homo sapiens
[9] = test system: Streptococcus; test: Group A Streptococcus viability loss, dose response, counter-screen for streptokinase expression inhibitor project, luminescence, BacTiterGlo (AID 1915); type: functional, organism-based;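 also: potency for reduction of bacterial viability or growth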
[10] = test system: Streptococcus sp. 'group A'; test: growth inhibition of control SK(-) GAS strain, dose response, counter-screen for streptokinase expression inhibitor project, luminescence, kanamycin, BacTiterGlo, confirmation (AID 1900); type: functional, organism-based

In the case of CCN(C(=O)c1cc2c(O)nc3ccc(C)cc3c2s1)c1cccc(C)c1, the EC50 [1] is reported as 0.708 µM (active) and the EC50 [2] is reported as > 60 µM (inconclusive).
With CCC(=O)Nc1ccc(C(=O)CSc2nnc(-c3ccc(O)cc3)n2CC2CCCO2)cc1OC (centres undefined) the AC50 [3] was 15.8 µM (inconclusive).
With c1ccc(CNc2cc(-c3ccoc3)ncn2)cc1 the AC50 [4] was 12.6 µM (inconclusive).
With COCC1CCCCN1Cc1c[nH]nc1-c1ccc2cc(OC)ccc2c1 (centres undefined) the EC50 [1] was 0.679 µM (active) and the EC50 [2] was > 60 µM (not active).
In the case of Clc1ccc(-c2nnc(-c3cccc4ccccc34)o2)cc1Cl, the AC50 [5] is reported as “inconclusive”.
In the case of O=C(c1ccco1)N1CCC[C@@]2(CCN(Cc3ccccc3)C2)C1, the AC50 [4] is reported as 20 µM (inconclusive).
With CC(C)CN1CCCC2(CCN(C(=O)c3cccc(F)c3)CC2)C1 the AC50 [6] was 12.6 µM (inconclusive) and the AC50 [4] was 25.1 µM (inconclusive).
For O=C(CSc1ccccc1)Nc1ccc(N2CCN(c3ccccc3)CC2)c(F)c1, the AC50 [3] was 0.447 µM (inconclusive) and the AC50 ([5]; read-out: AC50) was 39.8 µM (inconclusive).
With C[n+]1ccc(/C=C/c2ccc(Br)cc2)cc1 the AC50 ([5]; read-out: AC50) was 3.98 µM (inconclusive).
With C[C@@H]1O[C@@H](O)[C@@H](O)[C@H](O)[C@H]1O the AC50 [5] was “inconclusive”.
In the case of CCOc1ccc(N(CC(=O)NCCC2=CCCCC2)S(=O)(=O)c2ccccc2)cc1, the EC50 [1] is reported as 2.58 µM (active) and the EC50 [2] is reported as 10.6 µM (active).
With Cc1cc(C)c(S(=O)(=O)c2ccc(F)cc2C)c(Cl)n1 the EC50 [1] was 0.867 µM (active) and the EC50 [2] was > 60 µM (not active).
For Cc1noc(C)c1-c1nccc(NCc2ccccc2)n1, the AC50 [6] was 39.8 µM (inconclusive).
In the case of CC(=O)N1N=C(c2cccc([N+](=O)[O-])c2)OC1c1ccccc1Cl (centres undefined), the AC50 [4] is reported as 39.8 µM (inconclusive).
In the case of O=c1c(-c2ccc(Cl)cc2)nc2cnc(N3CCNCC3)nc2n1CCc1ccccc1, the AC50 [4] is reported as 31.6 µM (inconclusive).
With COC(=O)[C@@]1(Cc2ccccc2)[C@H]2c3cc(C(=O)N(C)C)n(Cc4cc(C)n(C)n4)c3C[C@H]2CN1C(=O)c1ccccc1 the AC50 [6] was 39.8 µM (inconclusive).
With CCOC(=O)c1c(-c2ccccc2)csc1NC(=O)c1cccc(N2C(=O)CCC2=O)c1 the AC50 [6] was 0.0112 µM (inconclusive).
In the case of O=C(CN1C(=O)COc2ccccc21)N(Cc1cccnc1)Cc1cccc(F)c1, the EC50 [1] is reported as 0.557 µM (active) and the EC50 [2] is reported as > 60 µM (not active).
In the case of O=C(CSc1nnc(-c2ccncc2)n1Cc1ccccc1)Nc1nccs1, the AC50 [6] is reported as 17.8 µM (inconclusive).
For Cc1cc(C(C)(C)C)cc(CNC2CCCCC2)c1O, the AC50 [3] was 7.94 µM (inconclusive).
With CC(=O)OC[C@@H]1O[C@H](C/C=N\O[C@@H](C)c2cn([C@H](CO)Cc3ccccc3)nn2)C=C[C@@H]1OC(C)=O the AC50 [4] was 5.01 µM (inconclusive) and 3.98 µM (inconclusive).
For CCOC(=O)C1=C(CCc2ccccc2)NC(=O)NC1c1ccc2ccccc2c1 (centres undefined), the AC50 [7] was 31.5 µM (active).
In the case of CS(=O)(=O)N1CCC2(CCCN(Cc3ccc(C#N)cc3)C2)CC1, the AC50 [6] is reported as 20 µM (inconclusive).
With Cc1cnc(CNc2ncncc2-c2ccccc2CN(C)C)cn1 the AC50 [6] was 39.8 µM (inconclusive).
With O=C1CN(c2nc(-c3cccnc3)nc3scc(-c4ccccc4)c23)CCN1 the EC50 [1] was 4.67 µM (active) and the EC50 [2] was 59.3 µM (active).
With O=C(c1ccncc1)N1CCC[C@@]2(CCN(Cc3nccs3)C2)C1 the AC50 [6] was 20 µM (inconclusive).
With C[N+]1(C)CCC[C@@H](OC(=O)C(O)(c2ccccc2)c2ccccc2)C1 the AC50 [6] was 10 µM (inconclusive) and the AC50 [5] was “inconclusive”.
With O=C(c1cnccn1)N1CCC2(CCCN(c3ccccn3)C2)CC1 the AC50 [6] was 20 µM (inconclusive) and the AC50 [4] was 7.94 µM (inconclusive).
In the case of OC(COC(c1ccc(F)cc1)c1ccc(F)cc1)CN1CCc2ccccc2C1 (centres undefined), the AC50 [7] is reported as 18.2 µM (active).
For C#CCn1c(S(=O)(=O)Cc2ccc(OC)cc2)nc(-c2ccccc2)c1-c1ccccc1, the AC50 [6] was 14.1 µM (inconclusive).
For CCOC(=O)c1c(-c2ccccc2)nc2c(C)cccn12, the AC50 [6] was 0.00562 µM (inconclusive) and the AC50 [4] was 14.1 µM (inconclusive).
With c1cc(CCN2CCCCC2)ccn1 the AC50 [4] was 6.31 µM (inconclusive).
In the case of CCOC(=O)c1cnc(-n2nc(C)cc2C)nc1Nc1ccc(O)cc1, the AC50 [7] is reported as 1.67 µM (active).
In the case of O=[N+]([O-])c1nn(-c2ccccc2)[n+]([O-])c1NCCc1ccccc1, the EC50 [1] is reported as 0.478 µM (active) and the EC50 [2] is reported as > 60 µM (inconclusive).
With Cc1ccc(C)c(N2CCN(CC(=O)Nc3ccc([N+](=O)[O-])cc3C(=O)Nc3ccccc3F)CC2)c1 the EC50 [1] was 1.19 µM (active) and the EC50 [2] was > 60 µM (not active).
In the case of COC1=CC(=O)O[C@@H](/C=C\c2ccccc2)C1, the AC50 ([5]; read-out: AC50) is reported as 5.01 µM (inconclusive).
In the case of CSc1nsc(SC)c1C(=O)Nc1ccc(C)cc1, the AC50 [3] is reported as 15.8 µM (inconclusive).
With O=C(c1csnn1)N1CCC2(CC1)CCN(c1ccncc1)CC2 the AC50 [3] was 15.8 µM (inconclusive), the AC50 [4] was 15.8 µM (inconclusive) and the AC50 ([5]; read-out: AC50) was 39.8 µM (inconclusive).
With N#Cc1c(C(F)(F)F)cc(-c2ccco2)nc1SCc1ccncc1 the EC50 [1] was 0.975 µM (active) and the EC50 [2] was 4.74 µM (active).
For O=C(Cn1ccc2ccccc2c1=O)N1CCN(c2cccc(Cl)c2)CC1, the AC50 [4] was 3.16 µM (inconclusive) and the AC50 ([5]; read-out: AC50) was 7.08 µM (inconclusive).
For FC(F)(F)c1cccc(CN2CCC(c3cc(-c4cccs4)[nH]n3)CC2)c1, the EC50 [1] was 2.31 µM (active) and the EC50 [2] was 14.6 µM (active).
In the case of CCOC(=O)c1c(NC(=O)C2=C(C)N=C(S)NC2c2ccccc2C(F)(F)F)sc(C)c1C (centres undefined), the EC50 [1] is reported as 2.4 µM (active) and the EC50 [2] is reported as > 60 µM (not active).
With COc1ccc(Cn2c(-c3ccc(Br)cc3)c[n+]3ccccc23)cc1 the EC50 [1] was 0.822 µM (active) and the EC50 [2] was > 30 µM (not active).
In the case of O=S(=O)(NCc1cc(-c2ccccc2)no1)c1ccc(Cl)cc1, the AC50 [6] is reported as 20 µM (inconclusive) and the AC50 [4] is reported as 25.1 µM (inconclusive).
With O=C(COc1ccc([N+](=O)[O-])cc1)N[N-][C+]1CCCC1 the AC50 [3] was 0.0251 µM (inconclusive) and the AC50 ([5]; read-out: AC50) was 1.78 µM (inconclusive).
With CCN(CC)CCN(C(=O)c1ccc(S(=O)(=O)N(C)C2CCCCC2)cc1)c1nc2ccc(OC)cc2s1 the EC50 [1] was 0.105 µM (active) and the EC50 [2] was > 60 µM (not active).
With Cc1ccc(S(=O)ON2CCC(C(=O)O)(c3ccccc3)CC2)cc1 (centres undefined) the AC50 [5] was “inconclusive”.
With O=C(CCCn1cnc([N+](=O)[O-])n1)Nc1ccc(Cl)cc1Cl the EC50 [1] was 0.132 µM (active) and the EC50 [2] was > 60 µM (inconclusive).
For COc1cc(CN2CCN(C(=O)COc3ccccc3)CC2)cc(OC)c1OC, the AC50 [3] was 22.4 µM (inconclusive) and the AC50 [4] was 22.4 µM (inconclusive).
In the case of C=C(CC1(C(C)NP(=O)(c2ccccc2)c2ccccc2)CC1)c1ccccc1 (centres undefined), the AC50 [6] is reported as 39.8 µM (inconclusive).
In the case of CS(=O)(=O)N1CCC[C@@]2(CCN(C(=O)Nc3cccc(C#N)c3)C2)C1, the AC50 [4] is reported as 20 µM (inconclusive).
With CCN1C(=O)C(CC(=O)Nc2ccc(OC)cc2)N(Cc2cccnc2)C1=S (centres undefined) the AC50 [3] was 10 µM (inconclusive).
For COc1ncc2nc(-c3ccc(Cl)cc3)c(=O)n(Cc3cccs3)c2n1, the AC50 [6] was 2.51 µM (inconclusive) and the AC50 [3] was 15.8 µM (inconclusive).
With Cn1c(=O)c(-c2ccc(F)c(F)c2)nc2cncnc21 the AC50 [4] was 20 µM (inconclusive).
In the case of c1ccc(-c2nc3ccccc3o2)nc1, the AC50 [3] is reported as 39.8 µM (inconclusive).
With Fc1ccc(N=C(S)NCCc2ccccc2)c(F)c1F the AC50 [6] was 15.8 µM (inconclusive).
With O=C(O)C/C(=C\c1ccco1)C(=O)O the AC50 [5] was “inconclusive”.
With O=c1c2cc(Br)ccc2[nH]c(=S)n1Cc1cccnc1 the AC50 [6] was 8.91 µM (inconclusive) and the AC50 [3] was 12.6 µM (inconclusive).
For Cc1ccc(-n2nnnc2Sc2nc([N+](=O)[O-])nn2C)cc1C, the AC50 [3] was 1.58 µM (inconclusive).
In the case of Cc1cc2nc(SCCOC(=O)Nc3ccc(Cl)cc3)nc(C)c2cc1C, the AC50 [3] is reported as 2.82 µM (inconclusive).
In the case of COc1cccc(NC(=S)N2CCn3cccc3C2c2cccnc2)c1 (centres undefined), the EC50 [1] is reported as 1.12 µM (active) and the EC50 [2] is reported as > 60 µM (not active).
With CC1=CC(=C(C#N)c2nc3ccccc3s2)C=C(C)N1Cc1ccco1 the EC50 [1] was 1.75 µM (active) and the EC50 [2] was > 30 µM (not active).
For Cc1cnc(CNc2cc(-c3ccccc3CN(C)C)ncn2)cn1, the AC50 [6] was 12.6 µM (inconclusive).
For Cc1ccc2c(c1)N(CC(=O)N1CCCCC1c1cccnc1)C(=O)CO2 (centres undefined), the EC50 [1] was 0.482 µM (active) and the EC50 [2] was > 60 µM (not active).
For COC(=O)[C@@]1(Cc2ccc(OC)cc2)[C@@H]2[C@@H](CC(=O)[C@H]2CC(=O)C(=O)N2CCCC2)CN1C(=O)c1ccccc1, the AC50 [3] was 20 µM (inconclusive) and the AC50 ([5]; read-out: AC50) was 25.1 µM (inconclusive).
In the case of COc1ccc(-c2noc3c2-c2nc(-c4ccccc4C)sc2CC3)cc1, the AC50 [8] is reported as 0.689 µM (active).
For Cc1ccc(-c2csc(NC(=O)c3c(C)noc3C)n2)s1, the AC50 [7] was 3.99 µM (active).
With CCN1CCN(CCC(=O)Nc2cccc(OC)c2)CC1.Cl the AC50 [5] was “inconclusive”.
For CCS(=O)(=O)c1ccc2c(c1)N(S(=O)(=O)c1ccccc1)CC(C(=O)O)O2 (centres undefined), the AC50 [3] was 12.6 µM (inconclusive).
For C=CC1=C[C@@H](O)C2OC2C12OCCCO2 (some centres undefined), the AC50 [5] was “inconclusive”.
With Cc1cc(N/N=C/c2cccc(Cl)c2)nc(-n2nc(C)cc2C)n1 the AC50 [7] was 2.69 µM (active), the EC50 [9] was 1.61 µM (active) and the EC50 [10] was 1.34 µM (active).
With Fc1ccc(CN(C2=NCCN2)c2c(Cl)cccc2Cl)cc1 the AC50 [3] was 39.8 µM (inconclusive).
With Nc1ncnc2c1cnn2-c1ccccc1 the AC50 ([5]; read-out: AC50) was 4.47 µM (inconclusive).
With COc1ccc2c(c[n+](C)c3c4cc5c(cc4ccc23)OCO5)c1OC [CHELERYTHRINE] the AC50 [6] was 25.1 µM (inconclusive), the AC50 [3] was 39.8 µM (inconclusive) and the AC50 [4] was 31.6 µM (inconclusive).
